From ChEMBL document CHEMBL4507279, “Data for DCP probe BI-9627” (2021)

Tests used:
[1] = target: Serine/threonine-protein kinase pim-2 (Homo sapiens) (UniProt Q9P1W9); conditions: Compound concentration 1000.0 nM
[2] = target: Ephrin type-B receptor 2 (Homo sapiens) (UniProt P29323); conditions: Compound concentration 1000.0 nM
[3] = target: Platelet-derived growth factor receptor alpha (Homo sapiens) (UniProt P16234); conditions: Compound concentration 1000.0 nM
[4] = target: Dual specificity protein kinase CLK1 (Homo sapiens) (UniProt P49759); conditions: Compound concentration 1000.0 nM
[5] = target: Histamine H4 receptor (Homo sapiens) (UniProt Q9H3N8); conditions: Compound concentration 10.0 uM
[6] = target: Casein kinase I isoform gamma-1 (Homo sapiens) (UniProt Q9HCP0); conditions: Compound concentration 1000.0 nM
[7] = target: Serine/threonine-protein kinase D1 (Homo sapiens) (UniProt Q15139); conditions: Compound concentration 1000.0 nM
[8] = target: Vascular endothelial growth factor receptor 1 (Homo sapiens) (UniProt P17948); conditions: Compound concentration 1000.0 nM
[9] = system: Tyrosine-protein kinase ABL1 (Homo sapiens), P00519 [H396P]; conditions: Compound concentration 1000.0 nM
[10] = target: Serine/threonine-protein kinase N2 (Homo sapiens) (UniProt Q16513); conditions: Compound concentration 1000.0 nM
[11] = target: Serine/threonine-protein kinase SIK1 (Homo sapiens) (UniProt P57059); conditions: Compound concentration 1000.0 nM
[12] = target: Phosphatidylinositol 4,5-bisphosphate 3-kinase catalytic subunit gamma isoform (Homo sapiens) (UniProt P48736); conditions: Compound concentration 1000.0 nM
[13] = target: Protein kinase C iota type (Homo sapiens) (UniProt P41743); conditions: Compound concentration 1000.0 nM
[14] = target: Tyrosine-protein kinase HCK (Homo sapiens) (UniProt P08631); conditions: Compound concentration 1000.0 nM
[15] = target: Sodium-dependent noradrenaline transporter (Homo sapiens) (UniProt P23975); conditions: Compound concentration 10.0 uM
[16] = target: Serine/threonine-protein kinase Chk2 (Homo sapiens) (UniProt O96017); conditions: Compound concentration 1000.0 nM
[17] = target: Mitogen-activated protein kinase kinase kinase 12 (Homo sapiens) (UniProt Q12852); conditions: Compound concentration 1000.0 nM
[18] = target: Proto-oncogene tyrosine-protein kinase ROS (Homo sapiens) (UniProt P08922); conditions: Compound concentration 1000.0 nM
[19] = target: Mitogen-activated protein kinase kinase kinase 11 (Homo sapiens) (UniProt Q16584); conditions: Compound concentration 1000.0 nM
[20] = target: Serine/threonine-protein kinase MRCK alpha (Homo sapiens) (UniProt Q5VT25); conditions: Compound concentration 1000.0 nM
[21] = target: Mitogen-activated protein kinase 4 (Homo sapiens) (UniProt P31152); conditions: Compound concentration 1000.0 nM
[22] = target: MAP kinase-activated protein kinase 2 (Homo sapiens) (UniProt P49137); conditions: Compound concentration 1000.0 nM
[23] = target: Receptor-interacting serine/threonine-protein kinase 1 (Homo sapiens) (UniProt Q13546); conditions: Compound concentration 1000.0 nM
[24] = target: Atypical kinase COQ8A, mitochondrial (Homo sapiens) (UniProt Q8NI60); conditions: Compound concentration 1000.0 nM
[25] = target: Phosphatidylinositol 4-phosphate 5-kinase type-1 gamma (Homo sapiens) (UniProt O60331); conditions: Compound concentration 1000.0 nM
[26] = target: Mitogen-activated protein kinase kinase kinase 20 (Homo sapiens) (UniProt Q9NYL2); conditions: Compound concentration 1000.0 nM
[27] = system: Mast/stem cell growth factor receptor Kit (Homo sapiens), P10721 [D816H]; conditions: Compound concentration 1000.0 nM
[28] = target: Serine/threonine-protein kinase 24 (Homo sapiens) (UniProt Q9Y6E0); conditions: Compound concentration 1000.0 nM
[29] = target: Serine/threonine-protein kinase MARK1 (Homo sapiens) (UniProt Q9P0L2); conditions: Compound concentration 1000.0 nM
[30] = target: Ephrin type-B receptor 1 (Homo sapiens) (UniProt P54762); conditions: Compound concentration 1000.0 nM
[31] = target: Tyrosine-protein kinase Fes/Fps (Homo sapiens) (UniProt P07332); conditions: Compound concentration 1000.0 nM
[32] = target: Serine/threonine-protein kinase SIK3 (Homo sapiens) (UniProt Q9Y2K2); conditions: Compound concentration 1000.0 nM
[33] = target: Receptor tyrosine-protein kinase erbB-2 (Homo sapiens) (UniProt P04626); conditions: Compound concentration 1000.0 nM
[34] = target: G protein-coupled receptor kinase 3 (Homo sapiens) (UniProt P35626); conditions: Compound concentration 1000.0 nM
[35] = target: Cyclin-dependent kinase 8 (Homo sapiens) (UniProt P49336); conditions: Compound concentration 1000.0 nM
[36] = target: Ribosomal protein S6 kinase alpha-2 (Homo sapiens) (UniProt Q15349); conditions: Compound concentration 1000.0 nM
[37] = system: Phosphatidylinositol 4,5-bisphosphate 3-kinase catalytic subunit alpha isoform (Homo sapiens), P42336 [E545A]; conditions: Compound concentration 1000.0 nM
[38] = target: Serine/threonine-protein kinase Sgk2 (Homo sapiens) (UniProt Q9HBY8); conditions: Compound concentration 1000.0 nM
[39] = target: Ephrin type-A receptor 3 (Homo sapiens) (UniProt P29320); conditions: Compound concentration 1000.0 nM
[40] = target: Serine/threonine-protein kinase PLK1 (Homo sapiens) (UniProt P53350); conditions: Compound concentration 1000.0 nM
[41] = system: eIF-2-alpha kinase GCN2 (Homo sapiens), Q9P2K8 [S808G]; conditions: Compound concentration 1000.0 nM
[42] = target: Protein-tyrosine kinase 2-beta (Homo sapiens) (UniProt Q14289); conditions: Compound concentration 1000.0 nM
[43] = target: Cyclin-dependent kinase 14 (Homo sapiens) (UniProt O94921); conditions: Compound concentration 1000.0 nM
[44] = target: Serine/threonine-protein kinase OSR1 (Homo sapiens) (UniProt O95747); conditions: Compound concentration 1000.0 nM
[45] = target: Dual specificity testis-specific protein kinase 1 (Homo sapiens) (UniProt Q15569); conditions: Compound concentration 1000.0 nM

Sequence of Cyclin-dependent kinase 8 (Homo sapiens) (P49336 whole entry): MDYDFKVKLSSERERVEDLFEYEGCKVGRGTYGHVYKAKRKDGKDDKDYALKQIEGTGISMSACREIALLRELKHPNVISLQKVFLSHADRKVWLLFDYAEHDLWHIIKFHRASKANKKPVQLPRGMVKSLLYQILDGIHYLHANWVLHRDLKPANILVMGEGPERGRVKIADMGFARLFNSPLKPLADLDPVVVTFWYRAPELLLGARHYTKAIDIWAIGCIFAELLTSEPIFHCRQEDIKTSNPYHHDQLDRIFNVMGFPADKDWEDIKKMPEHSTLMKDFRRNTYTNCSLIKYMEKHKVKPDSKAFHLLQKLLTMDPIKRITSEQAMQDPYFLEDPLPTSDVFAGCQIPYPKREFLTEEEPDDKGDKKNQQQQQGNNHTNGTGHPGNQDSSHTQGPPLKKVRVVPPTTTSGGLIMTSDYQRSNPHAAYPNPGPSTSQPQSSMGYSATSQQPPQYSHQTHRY
Sequence of Serine/threonine-protein kinase D1 (Homo sapiens) (Q15139 whole entry): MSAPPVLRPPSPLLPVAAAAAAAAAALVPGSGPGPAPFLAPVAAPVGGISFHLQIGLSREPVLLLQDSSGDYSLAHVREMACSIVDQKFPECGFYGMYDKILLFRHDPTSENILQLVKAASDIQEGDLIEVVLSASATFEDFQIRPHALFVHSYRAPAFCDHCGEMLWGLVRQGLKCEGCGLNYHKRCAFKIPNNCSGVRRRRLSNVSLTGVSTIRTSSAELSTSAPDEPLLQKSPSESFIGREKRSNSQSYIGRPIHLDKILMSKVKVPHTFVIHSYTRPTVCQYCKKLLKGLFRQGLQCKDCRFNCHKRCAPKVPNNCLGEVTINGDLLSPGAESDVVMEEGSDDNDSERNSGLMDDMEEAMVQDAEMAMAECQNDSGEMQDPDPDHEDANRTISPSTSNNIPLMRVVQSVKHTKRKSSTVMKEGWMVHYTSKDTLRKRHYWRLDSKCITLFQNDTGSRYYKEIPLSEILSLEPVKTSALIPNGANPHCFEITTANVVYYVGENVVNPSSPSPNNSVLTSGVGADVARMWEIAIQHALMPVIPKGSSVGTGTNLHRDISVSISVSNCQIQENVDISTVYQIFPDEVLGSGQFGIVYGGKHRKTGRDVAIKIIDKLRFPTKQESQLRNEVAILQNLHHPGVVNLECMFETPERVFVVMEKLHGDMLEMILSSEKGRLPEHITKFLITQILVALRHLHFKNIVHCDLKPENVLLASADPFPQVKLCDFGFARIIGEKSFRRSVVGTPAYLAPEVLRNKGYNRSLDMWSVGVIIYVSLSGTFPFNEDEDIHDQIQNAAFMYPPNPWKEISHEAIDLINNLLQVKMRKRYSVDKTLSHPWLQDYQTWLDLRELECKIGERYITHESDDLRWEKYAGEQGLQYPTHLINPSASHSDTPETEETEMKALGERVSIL
Sequence of Receptor tyrosine-protein kinase erbB-2 (Homo sapiens) (P04626 whole entry): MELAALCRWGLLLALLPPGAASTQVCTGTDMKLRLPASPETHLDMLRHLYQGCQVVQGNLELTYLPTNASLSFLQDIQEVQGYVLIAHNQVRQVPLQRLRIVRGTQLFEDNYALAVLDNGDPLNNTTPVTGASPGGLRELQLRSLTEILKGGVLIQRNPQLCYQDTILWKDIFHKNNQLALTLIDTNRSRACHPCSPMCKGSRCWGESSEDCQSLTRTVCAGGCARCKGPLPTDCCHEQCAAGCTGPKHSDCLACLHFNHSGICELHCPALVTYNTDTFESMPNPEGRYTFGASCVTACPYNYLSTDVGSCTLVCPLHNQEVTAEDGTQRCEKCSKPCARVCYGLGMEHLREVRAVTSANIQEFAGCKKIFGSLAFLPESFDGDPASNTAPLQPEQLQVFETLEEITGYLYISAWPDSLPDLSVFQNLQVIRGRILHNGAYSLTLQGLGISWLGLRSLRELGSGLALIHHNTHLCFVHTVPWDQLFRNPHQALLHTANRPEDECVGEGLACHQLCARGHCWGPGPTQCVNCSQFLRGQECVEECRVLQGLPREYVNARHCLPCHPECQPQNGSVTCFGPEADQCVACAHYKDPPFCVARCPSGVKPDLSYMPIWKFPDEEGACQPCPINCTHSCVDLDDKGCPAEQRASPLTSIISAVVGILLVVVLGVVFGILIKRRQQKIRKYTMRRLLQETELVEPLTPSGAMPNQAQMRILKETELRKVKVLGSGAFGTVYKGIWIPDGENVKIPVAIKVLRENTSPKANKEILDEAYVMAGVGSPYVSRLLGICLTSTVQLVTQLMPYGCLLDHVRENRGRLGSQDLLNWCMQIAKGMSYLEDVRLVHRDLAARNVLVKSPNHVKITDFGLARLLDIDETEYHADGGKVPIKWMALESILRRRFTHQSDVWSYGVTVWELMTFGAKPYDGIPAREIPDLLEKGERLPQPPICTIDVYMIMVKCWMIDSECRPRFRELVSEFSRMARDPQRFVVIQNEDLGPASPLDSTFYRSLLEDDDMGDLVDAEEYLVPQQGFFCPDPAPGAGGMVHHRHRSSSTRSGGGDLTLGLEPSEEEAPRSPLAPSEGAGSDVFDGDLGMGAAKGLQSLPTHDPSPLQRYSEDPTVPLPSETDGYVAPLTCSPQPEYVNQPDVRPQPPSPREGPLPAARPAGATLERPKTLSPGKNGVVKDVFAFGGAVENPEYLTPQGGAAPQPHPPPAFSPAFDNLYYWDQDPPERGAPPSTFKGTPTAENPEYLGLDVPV
Sequence of Serine/threonine-protein kinase N2 (Homo sapiens) (Q16513 whole entry, looked up): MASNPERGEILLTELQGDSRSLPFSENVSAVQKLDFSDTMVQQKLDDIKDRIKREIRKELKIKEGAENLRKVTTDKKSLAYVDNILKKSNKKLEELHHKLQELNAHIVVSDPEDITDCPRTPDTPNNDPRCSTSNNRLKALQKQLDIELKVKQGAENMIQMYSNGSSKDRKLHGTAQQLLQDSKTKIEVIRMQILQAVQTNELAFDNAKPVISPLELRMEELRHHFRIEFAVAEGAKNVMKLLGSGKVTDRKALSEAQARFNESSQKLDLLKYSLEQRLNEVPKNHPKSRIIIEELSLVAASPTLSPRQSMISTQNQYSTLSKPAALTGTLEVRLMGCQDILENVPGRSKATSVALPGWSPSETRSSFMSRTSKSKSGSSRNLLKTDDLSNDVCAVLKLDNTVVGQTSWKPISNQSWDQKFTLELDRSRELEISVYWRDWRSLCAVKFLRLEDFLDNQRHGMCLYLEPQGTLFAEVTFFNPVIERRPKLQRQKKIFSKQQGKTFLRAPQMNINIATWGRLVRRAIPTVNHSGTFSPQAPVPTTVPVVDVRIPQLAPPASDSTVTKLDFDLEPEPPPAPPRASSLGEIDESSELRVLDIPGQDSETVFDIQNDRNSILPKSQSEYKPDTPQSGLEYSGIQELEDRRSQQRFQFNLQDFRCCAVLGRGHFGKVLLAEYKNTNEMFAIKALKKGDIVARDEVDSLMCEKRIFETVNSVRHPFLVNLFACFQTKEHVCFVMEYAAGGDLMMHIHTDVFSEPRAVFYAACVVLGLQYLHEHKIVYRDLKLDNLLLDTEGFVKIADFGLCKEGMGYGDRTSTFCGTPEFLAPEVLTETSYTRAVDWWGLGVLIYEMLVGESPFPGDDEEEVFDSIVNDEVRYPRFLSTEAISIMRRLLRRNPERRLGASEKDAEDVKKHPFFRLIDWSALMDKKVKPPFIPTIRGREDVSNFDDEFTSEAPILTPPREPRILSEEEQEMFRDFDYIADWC
Sequence of Tyrosine-protein kinase HCK (Homo sapiens) (P08631 2-526 limits assumed): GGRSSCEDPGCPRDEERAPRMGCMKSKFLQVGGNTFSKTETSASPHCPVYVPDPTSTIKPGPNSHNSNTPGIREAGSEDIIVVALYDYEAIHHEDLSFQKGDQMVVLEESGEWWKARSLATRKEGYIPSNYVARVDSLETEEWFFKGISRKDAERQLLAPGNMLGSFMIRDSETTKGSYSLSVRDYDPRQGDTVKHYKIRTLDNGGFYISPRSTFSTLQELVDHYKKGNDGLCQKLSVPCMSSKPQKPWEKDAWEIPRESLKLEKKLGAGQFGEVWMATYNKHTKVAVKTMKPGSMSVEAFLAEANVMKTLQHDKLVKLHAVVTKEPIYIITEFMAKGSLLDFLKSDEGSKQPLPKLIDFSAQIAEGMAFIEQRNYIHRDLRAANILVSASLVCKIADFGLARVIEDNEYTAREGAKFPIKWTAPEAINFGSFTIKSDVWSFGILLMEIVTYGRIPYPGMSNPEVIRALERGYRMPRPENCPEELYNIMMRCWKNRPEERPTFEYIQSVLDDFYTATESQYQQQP
Sequence of Mitogen-activated protein kinase 4 (Homo sapiens) (P31152 whole entry): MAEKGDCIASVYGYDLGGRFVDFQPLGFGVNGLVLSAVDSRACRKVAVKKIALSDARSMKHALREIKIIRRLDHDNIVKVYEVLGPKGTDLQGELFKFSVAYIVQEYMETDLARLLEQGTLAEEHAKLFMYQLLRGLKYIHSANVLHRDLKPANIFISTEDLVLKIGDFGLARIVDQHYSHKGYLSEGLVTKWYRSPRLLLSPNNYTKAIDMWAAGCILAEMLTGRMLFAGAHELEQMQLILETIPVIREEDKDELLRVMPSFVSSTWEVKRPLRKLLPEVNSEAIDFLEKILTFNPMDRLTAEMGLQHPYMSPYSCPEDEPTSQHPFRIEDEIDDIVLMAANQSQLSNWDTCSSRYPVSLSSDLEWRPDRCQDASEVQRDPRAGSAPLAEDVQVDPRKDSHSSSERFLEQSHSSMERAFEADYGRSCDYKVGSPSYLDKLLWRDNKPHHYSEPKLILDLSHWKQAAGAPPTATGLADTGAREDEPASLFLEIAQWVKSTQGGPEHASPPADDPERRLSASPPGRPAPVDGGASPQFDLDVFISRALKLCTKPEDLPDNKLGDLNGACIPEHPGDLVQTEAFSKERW
Sequence of Serine/threonine-protein kinase pim-2 (Homo sapiens) (Q9P1W9 whole entry, looked up): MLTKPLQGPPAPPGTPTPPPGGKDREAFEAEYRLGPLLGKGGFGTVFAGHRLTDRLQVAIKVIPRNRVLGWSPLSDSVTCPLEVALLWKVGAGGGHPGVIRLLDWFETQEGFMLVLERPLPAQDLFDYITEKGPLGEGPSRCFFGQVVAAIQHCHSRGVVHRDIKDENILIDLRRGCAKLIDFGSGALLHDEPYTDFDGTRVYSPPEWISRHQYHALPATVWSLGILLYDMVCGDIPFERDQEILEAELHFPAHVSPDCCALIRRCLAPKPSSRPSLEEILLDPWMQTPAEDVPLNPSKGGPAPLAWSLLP

CC(=O)N1CCC(c2ccc(C(=O)NC3=NCCN3)cc2C(F)(F)F)CC1 [BI 0054]
inactive: residual activity [1] 100% | residual activity [2] 82% | residual activity [3] 92% | residual activity [4] 100% | inhibition [5] 9.81% | residual activity [6] 95% | residual activity [7] 100% | residual activity [8] 100% | residual activity [9] 100% | residual activity [10] 100% | residual activity [11] 100% | residual activity [12] 100% | residual activity [13] 83% | residual activity [14] 100% | inhibition [15] 21.5% | residual activity [16] 100% | residual activity [17] 100% | residual activity [18] 99% | residual activity [19] 100% | residual activity [20] 100% | residual activity [21] 87% | residual activity [22] 100% | residual activity [23] 100% | residual activity [24] 95% | residual activity [25] 99% | residual activity [26] 88% | residual activity [27] 97% | residual activity [28] 97% | residual activity [29] 100% | residual activity [30] 100% | residual activity [31] 100% | residual activity [32] 100% | residual activity [33] 100% | residual activity [34] 76% | residual activity [35] 100% | residual activity [36] 83% | residual activity [37] 100% | residual activity [38] 100% | residual activity [39] 95% | residual activity [40] 88% | residual activity [41] 52% | residual activity [42] 100% | residual activity [43] 100% | residual activity [44] 100% | residual activity [45] 72%

CC(=O)N1CCC(c2ccc(C(=O)NC(=N)N)cc2C(F)(F)F)CC1 [BI 9627]
inactive: residual activity [1] 100% | residual activity [2] 100% | residual activity [3] 100% | residual activity [4] 100% | inhibition [5] 7.11% | residual activity [6] 100% | residual activity [7] 100% | residual activity [8] 100% | residual activity [9] 86% | residual activity [10] 100% | residual activity [11] 100% | residual activity [12] 100% | residual activity [13] 100% | residual activity [14] 100% | inhibition [15] 28.6% | residual activity [16] 100% | residual activity [17] 100% | residual activity [18] 100% | residual activity [19] 100% | residual activity [20] 100% | residual activity [21] 100% | residual activity [22] 100% | residual activity [23] 100% | residual activity [24] 96% | residual activity [25] 100% | residual activity [26] 100% | residual activity [27] 100% | residual activity [28] 100% | residual activity [29] 100% | residual activity [30] 100% | residual activity [31] 96% | residual activity [32] 100% | residual activity [33] 92% | residual activity [34] 92% | residual activity [35] 100% | residual activity [36] 97% | residual activity [37] 100% | residual activity [38] 100% | residual activity [39] 100% | residual activity [40] 90% | residual activity [41] 73% | residual activity [42] 100% | residual activity [43] 100% | residual activity [44] 100% | residual activity [45] 95%
